PMC9667784, “Synthesis, biological evaluation and computational studies of pyrazole derivatives as Mycobacterium tuberculosis CYP121A1 inhibitors” (RSC Medicinal Chemistry, 2022)
In brackets after ≈: the same amount, converted by molar mass. Several values for one entry are separate records, joined by “and”; a condition that tells them apart may be missing. Identical values can stand only once. Like-named read-outs stand apart in the source and are kept apart here.

Key:
Mtb H37Rv [1] = assay: microbe, parasite or virus in culture; format: cell-based; conditions: Mycobacterium tuberculosis
Mtb CYP121A1 = biological target: T1, Mtb CYP121A1 (Mycobacterium tuberculosis, UniProt P9WPP7); assay: biochemical; format: binding; conditions: for Kd: 1 μM protein, 0 to 150 μM compound, plate reader, triplicate; for Soret shift: UV-vis absorbance, Soret band shift on ligand binding; for Spectral response in the UV-vis assay: compared with the imidazole derivatives
T1 construct: made in house

Mtb = test system: Mtb; parameters: method as in PMID 31367508; conditions: lead diarylpyrazole derivatives, Fig. 2; cited from earlier work
CYP121A1 = conditions: lead diarylpyrazole derivatives, Fig. 2; cited from earlier work
Mtb H37Rv [2] = test system: Mtb H37Rv; parameters: method as in PMID 29185746; conditions: previously prepared methoxy derivatives; cited from earlier work
[3] = Mtb H37Rv, SPOTi, five weeks at 37 °C, average of two independent experiments, read-out: MIC90

T1 sequence (P9WPP7 whole entry): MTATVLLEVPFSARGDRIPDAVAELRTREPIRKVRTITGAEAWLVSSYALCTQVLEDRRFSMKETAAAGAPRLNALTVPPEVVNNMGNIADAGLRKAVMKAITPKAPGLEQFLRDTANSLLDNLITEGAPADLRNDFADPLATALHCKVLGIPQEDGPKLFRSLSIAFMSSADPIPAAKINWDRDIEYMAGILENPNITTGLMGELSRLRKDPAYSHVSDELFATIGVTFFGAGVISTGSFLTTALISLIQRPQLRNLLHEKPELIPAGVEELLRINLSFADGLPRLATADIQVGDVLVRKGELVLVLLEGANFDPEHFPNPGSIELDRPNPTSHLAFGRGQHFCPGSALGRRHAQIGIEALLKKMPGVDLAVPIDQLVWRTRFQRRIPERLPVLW

Q: For NC[C@H]1O[C@H](O[C@H]2[C@H](O)[C@@H](O[C@H]3O[C@H](CO)[C@@H](O)[C@H](N)[C@H]3O)[C@H](N)C[C@@H]2N)[C@H](O)[C@@H](O)[C@@H]1O [Kanamycin, reference compound], which MIC90 (Mtb H37Rv [1]) is on record?
A: 7.8 µg/mL and 16.1 µM

Q: With CCCOc1ccc(-c2nn(-c3ccc(F)cc3)cc2Cn2cncn2)cc1 [12e, 1-((1-(4-Fluorophenyl)-3-(4-propoxyphenyl)-1H-pyrazol-4-yl)methyl)-1H-1,2,4-triazole] as the compound, how does the MIC90 (Mtb H37Rv [1]; [3]) read?
A: 20.9 µg/mL and 55.5 µM

Q: What about the melting point of the same compound?
A: 120 to 122 °C

Q: For CO[C@H]1/C=C/O[C@@]2(C)Oc3c(C)c(O)c4c(O)c(c(/C=N/N5CCN(C)CC5)c(O)c4c3C2=O)NC(=O)/C(C)=C\C=C\[C@H](C)[C@H](O)[C@@H](C)[C@@H](O)[C@@H](C)[C@H](OC(C)=O)[C@@H]1C [Rifampicin, reference compound], which MIC90 (Mtb H37Rv [1]; [3]) is on record?
A: 0.2 µg/mL and 0.3 µM

Q: What does the source list for COc1ccc(-c2nn(-c3ccc(Cl)cc3)cc2Cn2ccnc2)cc1 [11b, 4-((1H-Imidazol-1-yl)methyl)-1-(4-chlorophenyl)-3-(4-methoxyphenyl)-1H-pyrazole]?
A: MIC90 (Mtb H37Rv [1]; [3]): 6 µg/mL and 16.5 µM; melting point: 136 to 138 °C

Q: Which MIC90 (Mtb H37Rv [1]; [3]) does the source give for COc1ccc(-c2nn(-c3ccc(F)cc3)cc2Cn2ccnc2)cc1 [11a, 4-((1H-Imidazol-1-yl)methyl)-1-(4-fluorophenyl)-3-(4-methoxyphenyl)-1H-pyrazole] here?
A: 4.3 µg/mL and 12.3 µM

Q: And the Kd (Mtb CYP121A1)?
A: 65 ± 16.6 µM

Q: And the Soret shift (Mtb CYP121A1)?
A: 417 to 421 nm

Q: What about the melting point of the same compound?
A: 150 to 152 °C

Q: For CCOc1ccc(-c2nn(-c3ccc(Cl)cc3)cc2Cn2ccnc2)cc1 [11d, 4-((1H-Imidazol-1-yl)methyl)-1-(4-chlorophenyl)-3-(4-ethoxyphenyl)-1H-pyrazole], which MIC90 (Mtb H37Rv [1]; [3]) is on record?
A: 5 µg/mL and 13.3 µM

Q: What about the Kd (Mtb CYP121A1) of the same compound?
A: 18.8 ± 10.2 µM

Q: What about the Soret shift (Mtb CYP121A1) of the same compound?
A: 417 to 420 nm

Q: And the melting point?
A: 124 to 126 °C

Q: Which MIC90 (Mtb H37Rv [1]; [3]) does the source give for COc1ccc(-c2nn(-c3ccc(F)cc3)cc2Cn2cncn2)cc1 [12a, 1-((1-(4-Fluorophenyl)-3-(4-methoxyphenyl)-1H-pyrazol-4-yl)methyl)-1H-1,2,4-triazole] here?
A: 12.8 µg/mL and 36.7 µM

Q: What about the melting point of the same compound?
A: 150 to 152 °C

Q: What does the source list for CC(C)Oc1ccc(-c2nn(-c3ccc(F)cc3)cc2Cn2cncn2)cc1 [12g, 1-((1-(4-Fluorophenyl)-3-(4-isopropoxyphenyl)-1H-pyrazol-4-yl)methyl)-1H-1,2,4-triazole]?
A: MIC90 (Mtb H37Rv [1]; [3]): 20.9 µg/mL and 55.5 µM; melting point: 118 to 120 °C

Q: Which results are given for CCCOc1ccc(-c2nn(-c3ccc(F)cc3)cc2Cn2ccnc2)cc1 [11e, 4-((1H-Imidazol-1-yl)methyl)-1-(4-fluorophenyl)-3-(4-propoxyphenyl)-1H-pyrazole]?
A: MIC90 (Mtb H37Rv [1]; [3]): 6 µg/mL and 15.9 µM; Kd (Mtb CYP121A1): 22.3 ± 4.2 µM; Soret shift (Mtb CYP121A1): 417 to 420 nm; melting point: 120 to 122 °C

Q: For CC(C)c1ccc(-c2nn(-c3ccccc3)cc2Cn2ccnc2)cc1 [R = iPr], which MIC (Mtb) is on record?
A: 1.562 µg/mL (≈ 4.56 µM)

Q: What about the Kd (CYP121A1) of the same compound?
A: 22.5 ± 3.5 µM

Q: With COc1ccc(-c2nn(-c3ccc(Cl)cc3)cc2Cn2cncn2)cc1 [12b, 1-((1-(4-Chlorophenyl)-3-(4-methoxyphenyl)-1H-pyrazol-4-yl)methyl)-1H-1,2,4-triazole] as the compound, how does the MIC90 (Mtb H37Rv [1]; [3]) read?
A: 4.4 µg/mL and 11.9 µM

Q: What about the Kd (Mtb CYP121A1) of the same compound?
A: 5.13 µM and 5.1 µM

Q: And the Soret shift (Mtb CYP121A1)?
A: 417 to 417 nm

Q: What about the “Spectral response in the UV-vis assay” value (Mtb CYP121A1) of the same compound?
A: weak spectral response

Q: What about the melting point of the same compound?
A: 124 to 126 °C

Q: With CC(C)Oc1ccc(-c2nn(-c3ccc(Cl)cc3)cc2Cn2cncn2)cc1 [12h, 1-((1-(4-Chlorophenyl)-3-(4-isopropoxyphenyl)-1H-pyrazol-4-yl)methyl)-1H-1,2,4-triazole] as the compound, how does the MIC90 (Mtb H37Rv [1]; [3]) read?
A: 25.6 µg/mL and 65.1 µM

Q: What about the melting point of the same compound?
A: 98 to 100 °C

Q: For NNC(=O)c1ccncc1 [Isoniazid, reference compound], which MIC90 (Mtb H37Rv [1]; [3]) is on record?
A: 0.2 µg/mL and 1.8 µM

Q: Which results are given for CCOc1ccc(-c2nn(-c3ccc(F)cc3)cc2Cn2ccnc2)cc1 [11c, 4-((1H-Imidazol-1-yl)methyl)-3-(4-ethoxyphenyl)-1-(4-fluorophenyl)-1H-pyrazole]?
A: MIC90 (Mtb H37Rv [1]; [3]): 12 µg/mL and 33.2 µM; Kd (Mtb CYP121A1): 54 ± 5.2 µM; Soret shift (Mtb CYP121A1): 417 to 422 nm; melting point: 118 to 120 °C

Q: With COc1ccc(-c2nn(-c3ccccc3)cc2Cn2ccnc2)cc1 [P1] as the compound, how does the MIC90 (Mtb H37Rv [2]) read?
A: 25 µg/mL (≈ 75.7 µM)

Q: What does the source list for CCOc1ccc(-c2nn(-c3ccc(F)cc3)cc2Cn2cncn2)cc1 [12c, 1-((3-(4-Ethoxyphenyl)-1-(4-fluorophenyl)-1H-pyrazol-4-yl)methyl)-1H-1,2,4-triazole]?
A: MIC90 (Mtb H37Rv [1]; [3]): 25.6 µg/mL and 70.5 µM; melting point: 140 to 142 °C

Q: Which results are given for CC(C)Oc1ccc(-c2nn(-c3ccc(Cl)cc3)cc2Cn2ccnc2)cc1 [11h, 4-((1H-Imidazol-1-yl)methyl)-1-(4-chlorophenyl)-3-(4-isopropoxyphenyl)-1H-pyrazole]?
A: MIC90 (Mtb H37Rv [1]; [3]): 4.4 µg/mL and 11.9 µM; Kd (Mtb CYP121A1): 17.7 µM; Soret shift (Mtb CYP121A1): 417 to 419 nm; melting point: 98 to 100 °C

Q: With CCCOc1ccc(-c2nn(-c3ccc(Cl)cc3)cc2Cn2cncn2)cc1 [12f, 1-((1-(4-Chlorophenyl)-3-(4-propoxyphenyl)-1H-pyrazol-4-yl)methyl)-1H-1,2,4-triazole] as the compound, how does the MIC90 (Mtb H37Rv [1]; [3]) read?
A: 6.4 µg/mL and 16.2 µM

Q: What about the melting point of the same compound?
A: 114 to 116 °C

Q: What does the source list for CCCOc1ccc(-c2nn(-c3ccc(Cl)cc3)cc2Cn2ccnc2)cc1 [11f, 4-((1H-Imidazol-1-yl)methyl)-1-(4-chlorophenyl)-3-(4-propoxyphenyl)-1H-pyrazole]?
A: MIC90 (Mtb H37Rv [1]; [3]): 4 µg/mL and 10.1 µM; Kd (Mtb CYP121A1): 11.7 µM; Soret shift (Mtb CYP121A1): 417 to 419 nm; Binding type from difference spectra (type I / type II) (Mtb CYP121A1; UV-vis binding difference spectra): type II; melting point: 90 to 92 °C

Q: With CC(C)Oc1ccc(-c2nn(-c3ccc(F)cc3)cc2Cn2ccnc2)cc1 [11g, 4-((1H-Imidazol-1-yl)methyl)-1-(4-fluorophenyl)-3-(4-isopropoxyphenyl)-1H-pyrazole] as the compound, how does the MIC90 (Mtb H37Rv [1]; [3]) read?
A: 4.3 µg/mL and 11.4 µM

Q: And the Kd (Mtb CYP121A1)?
A: 38.5 ± 8.7 µM

Q: What about the Soret shift (Mtb CYP121A1) of the same compound?
A: 417 to 419 nm

Q: What about the melting point of the same compound?
A: 96 to 98 °C

Q: What does the source list for CCCc1ccc(-c2nn(-c3ccccc3)cc2Cn2ccnc2)cc1 [R = Pr]?
A: MIC (Mtb): 0.78 µg/mL and 0.781 µg/mL; Kd (CYP121A1): 53.7 ± 5.9 µM

Q: For CCc1ccc(-c2nn(-c3ccccc3)cc2Cn2ccnc2)cc1 [R = Et], which MIC (Mtb) is on record?
A: 1.562 µg/mL (≈ 4.76 µM)

Q: And the Kd (CYP121A1)?
A: 18.3 ± 3.4 µM

Q: What does the source list for CCOc1ccc(-c2nn(-c3ccc(Cl)cc3)cc2Cn2cncn2)cc1 [12d, 1-((1-(4-Chlorophenyl)-3-(4-ethoxyphenyl)-1H-pyrazol-4-yl)methyl)-1H-1,2,4-triazole]?
A: MIC90 (Mtb H37Rv [1]; [3]): 6.4 µg/mL and 16.8 µM; Spectral response in the UV-vis assay (Mtb CYP121A1): weak spectral response; melting point: 122 to 124 °C

Q: For COc1ccc(-c2nn(-c3ccccc3)cc2Cn2cncn2)cc1 [P2], which MIC90 (Mtb H37Rv [2]) is on record?
A: 25 µg/mL (≈ 75.4 µM)
